Results as given in patent US20120058507A1, “Clonal Derivation and Cell Culture quality Control Screening Methods” (SRU Biosystems, Inc., priority 2009, published 2012).
Values belong to the compound of their own block, whether it stands above or below them.

Assays:
Assay type in all cases: cell-based
[1] = biological target: T1, M4 muscarinic receptor expressing cells (M4R) (Homo sapiens, UniProt P08173); test: Label-free endpoint response on BIND Reader, M4R cells; details: for Endpoint response of M4R cells to ligand: first addition, 10uM carbachol or 50 nM ET-1, M4R cells plated alone
T1 sequence (P08173 1-479): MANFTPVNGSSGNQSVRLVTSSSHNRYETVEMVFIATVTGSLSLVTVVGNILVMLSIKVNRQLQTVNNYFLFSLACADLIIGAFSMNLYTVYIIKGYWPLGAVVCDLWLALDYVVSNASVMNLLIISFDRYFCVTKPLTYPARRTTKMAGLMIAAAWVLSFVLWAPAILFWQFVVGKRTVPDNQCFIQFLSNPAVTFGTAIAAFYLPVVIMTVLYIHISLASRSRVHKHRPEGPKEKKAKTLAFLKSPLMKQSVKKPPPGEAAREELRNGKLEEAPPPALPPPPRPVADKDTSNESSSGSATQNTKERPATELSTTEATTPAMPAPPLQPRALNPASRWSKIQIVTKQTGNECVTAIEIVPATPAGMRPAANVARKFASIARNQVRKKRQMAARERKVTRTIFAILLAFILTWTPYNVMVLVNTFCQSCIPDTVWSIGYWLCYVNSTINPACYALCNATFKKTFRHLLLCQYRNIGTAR
Description: (§1) The response of the two or more cell types to the stimuli or test reagent can be also detected by a BIND® READER (colorimetric resonant reflectance biosensor system). For example, Endothelin receptor expressing cells (ETaR) and M4 muscarinic receptor expressing cells (M4R) were plated on CA2 cellular matrix-coated colorimetric resonant reflectance biosensor plates in starvation media. The cells were pre-treated with antagonists (either atropine to inhibit M4 or BMS to inhibit ETaR) for 30 min. […] Data are referenced to buffer controls.
(§2) The ETaR cells and M4R cells were then treated with a second ligand.

[2] = biological target: T2, Endothelin receptor expressing cells (ETaR) (Homo sapiens, UniProt P25101); test: Label-free endpoint response on BIND Reader, ETaR cells; details: first addition; 10uM carbachol or 50 nM ET-1; ETaR cells plated alone
T2 sequence (P25101 21-427): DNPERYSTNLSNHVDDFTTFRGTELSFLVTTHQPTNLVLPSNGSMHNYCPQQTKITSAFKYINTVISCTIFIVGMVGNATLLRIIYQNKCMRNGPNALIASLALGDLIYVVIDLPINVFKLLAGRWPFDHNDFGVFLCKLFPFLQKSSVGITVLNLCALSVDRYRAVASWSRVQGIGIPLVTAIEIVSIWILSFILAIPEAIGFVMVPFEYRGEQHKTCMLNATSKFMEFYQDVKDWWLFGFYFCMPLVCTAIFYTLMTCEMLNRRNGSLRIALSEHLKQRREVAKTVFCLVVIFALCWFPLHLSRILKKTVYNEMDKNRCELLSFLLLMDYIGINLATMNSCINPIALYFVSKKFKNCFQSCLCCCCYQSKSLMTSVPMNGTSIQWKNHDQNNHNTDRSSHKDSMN
Description: as §1, §2

[3] = biological target: cells expressing α4/β1 integrin receptors (Homo sapiens, UniProt P05556+P13612); test: Cell attachment PWV shift on ECM ligand coated wells; details: for PWV shift of attached cells: immobilized on biosensor surface
Chain of cells expressing α4/β1 integrin receptors (P13612 34-1032): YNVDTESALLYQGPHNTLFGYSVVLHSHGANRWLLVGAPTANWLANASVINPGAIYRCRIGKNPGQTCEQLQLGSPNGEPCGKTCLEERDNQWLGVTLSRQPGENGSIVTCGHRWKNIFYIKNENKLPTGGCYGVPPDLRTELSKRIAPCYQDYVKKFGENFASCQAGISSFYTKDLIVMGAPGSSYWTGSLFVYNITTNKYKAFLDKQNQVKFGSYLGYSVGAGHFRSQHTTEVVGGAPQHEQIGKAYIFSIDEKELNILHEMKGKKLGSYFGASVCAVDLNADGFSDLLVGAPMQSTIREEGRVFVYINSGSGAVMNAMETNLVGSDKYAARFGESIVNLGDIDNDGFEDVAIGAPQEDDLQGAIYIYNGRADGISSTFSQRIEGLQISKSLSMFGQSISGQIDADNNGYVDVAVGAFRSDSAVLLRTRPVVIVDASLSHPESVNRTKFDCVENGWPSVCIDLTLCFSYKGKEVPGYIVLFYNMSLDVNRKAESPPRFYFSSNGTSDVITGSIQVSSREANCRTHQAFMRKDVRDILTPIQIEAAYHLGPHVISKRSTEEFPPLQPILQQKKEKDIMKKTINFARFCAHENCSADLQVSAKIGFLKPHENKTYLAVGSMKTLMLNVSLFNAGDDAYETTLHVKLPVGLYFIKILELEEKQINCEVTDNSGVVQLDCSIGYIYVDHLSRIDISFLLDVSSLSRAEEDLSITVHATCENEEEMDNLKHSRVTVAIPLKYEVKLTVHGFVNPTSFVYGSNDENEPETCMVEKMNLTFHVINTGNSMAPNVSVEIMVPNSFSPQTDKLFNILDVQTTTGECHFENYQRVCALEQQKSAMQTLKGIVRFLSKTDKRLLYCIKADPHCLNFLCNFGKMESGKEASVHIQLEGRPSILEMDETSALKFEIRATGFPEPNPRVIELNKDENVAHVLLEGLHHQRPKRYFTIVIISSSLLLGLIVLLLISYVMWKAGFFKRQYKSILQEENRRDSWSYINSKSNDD
Chain of cells expressing α4/β1 integrin receptors (P05556 21-798): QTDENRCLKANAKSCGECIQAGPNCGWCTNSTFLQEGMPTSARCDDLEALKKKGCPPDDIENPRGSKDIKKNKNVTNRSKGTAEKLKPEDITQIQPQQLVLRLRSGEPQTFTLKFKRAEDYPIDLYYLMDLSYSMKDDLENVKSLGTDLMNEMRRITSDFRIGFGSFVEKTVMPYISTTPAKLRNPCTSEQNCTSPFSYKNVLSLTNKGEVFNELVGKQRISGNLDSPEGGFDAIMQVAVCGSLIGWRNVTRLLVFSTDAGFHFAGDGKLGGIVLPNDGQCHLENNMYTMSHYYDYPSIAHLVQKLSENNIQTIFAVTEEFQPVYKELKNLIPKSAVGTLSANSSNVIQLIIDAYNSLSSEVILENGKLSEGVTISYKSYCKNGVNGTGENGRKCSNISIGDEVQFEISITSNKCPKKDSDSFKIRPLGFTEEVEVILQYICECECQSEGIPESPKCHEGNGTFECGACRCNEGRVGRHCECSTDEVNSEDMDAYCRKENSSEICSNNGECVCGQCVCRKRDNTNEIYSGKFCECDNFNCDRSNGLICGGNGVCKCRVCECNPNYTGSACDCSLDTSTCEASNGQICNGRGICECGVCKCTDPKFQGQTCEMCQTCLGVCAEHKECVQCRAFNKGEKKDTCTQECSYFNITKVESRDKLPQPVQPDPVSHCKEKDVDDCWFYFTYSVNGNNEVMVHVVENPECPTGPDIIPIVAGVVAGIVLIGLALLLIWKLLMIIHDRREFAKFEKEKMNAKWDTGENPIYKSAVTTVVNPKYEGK
Source text: For example, cells expressing α4/β1 integrin receptors, which are known to bind to fibronectin ligands, but not to collagen or laminin ligands, generate a PWV shift on fibronectin coated wells that is about 8 to 10 times greater than the PWV shift observed on collagen or laminin surfaces.

rat MSC cell = test: Rat MSC attachment to ECM-coated biosensors; details: ovalbumin, fibronectin, laminin or collagen biosensors
Source text: In certain cases cells, such as stem cell or primary cells, have varying reactions to ligands depending upon what extracellular matrix component is present on the surface of the biosensor. This preference can be determined for each type of cell. […] The mP-M5 and mP-M4 cells show the best reaction to the ligands when they are on biosensors comprising fibronectin or collagen. […] Cells can be tested to determine the best ligand/ECM coating for attachment to the biosensor.

CXCR4 = biological target: T3, CXCR4 (Homo sapiens, UniProt P61073); test: Label-free response to SDF-1α on BIND READER; details: THP-1 cells, OEM cells, MSC cells; different concentrations
T3 construct: endogenous in cells; host or cells: THP-1 cells, 'OEM' cells, MSC cells
T3 sequence (P61073 whole entry, species assumed): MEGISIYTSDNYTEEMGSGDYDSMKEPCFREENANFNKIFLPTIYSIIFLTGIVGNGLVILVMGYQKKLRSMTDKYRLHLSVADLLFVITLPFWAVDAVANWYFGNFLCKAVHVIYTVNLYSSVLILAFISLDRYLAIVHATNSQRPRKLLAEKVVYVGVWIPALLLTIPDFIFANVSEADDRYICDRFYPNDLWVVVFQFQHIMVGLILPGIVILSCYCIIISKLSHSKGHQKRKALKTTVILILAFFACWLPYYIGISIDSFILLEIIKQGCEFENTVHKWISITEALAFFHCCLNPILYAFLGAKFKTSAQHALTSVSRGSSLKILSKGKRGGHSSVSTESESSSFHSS
Source text: SDF-1α binds to and activates CXCR4, a GPCR. Stem cells will move to tissues releasing gradients of SDF-1α. Damaged tissue releases elevated levels of SDF-1α resulting in increased migration of mesenchymal stem cells to sites of injury. Chemotactic factors induce significant changes in the actin cytoskeleton of cells upon receptor activation. These changes are manifested as directional movement when the chemokine is presented as a gradient. SDF-1α induces the migration of mesenchymal stem cells and osteoblast progenitor cells. Overexpression of CXCR4 results in improved MSC migration and homing to sites of vascular injury.

Rat MSC cells = test: Rat MSC movement on fibronectin-coated biosensor; details: attachment signal zeroed out
Description: Rat MSC cells were added to a biosensor coated with fibronectin. Cell attachment was detected on a colorimetric resonant reflectance biosensor at 3 hours and 16 hours. The attachment signal was zeroed out and the cells were stimulated with SDF-1α or were not stimulated. Movement of the cells can be seen in the right panels of FIG. 12. The darker spots are where the cells were prior to detection and the lighter spots are where the cells are when the reaction was detected. […] An enhanced signal can be seen on the cell edges where movement and/or cell adhesion is occurring. The enhanced signal correlates with the leading edge of the cells as they move across the biosensor as evidenced by time lapse imaging. This is consistent with extracellular matrix-integrin engagement of the cells. […] An approximately 7 to 10 fold improvement in signal to noise is observed.

M5/RBL cells = test: Label-free response of 1:1 mixed RBL and M5/RBL cells on BIND SCANNER; details: 1:1 mixed population of RBL+M5/RBL cells
Description: RBL and M5/RBL cells were mixed in a 1:1 ratio and were plated in colorimetric resonant reflectance biosensor wells. The cells were allowed to attach to the biosensor and the attachment reaction was detected on a BIND® SCANNER. Acetylcholine was added to the biosensor surface. […] Approximately 50% of a 1:1 mixed population of RBL+M5/RBL cells responded to acetylcholine. The responding cells can be gated and analyzed for quantitative responses (e.g., responses to additional test reagents or stimuli) independent of non-responding population. Therefore, the presence of different types of cells on a biosensor can be detected when their response to a ligand is known.

Compound: ET-1: ligand to which Endothelin receptor expressing cells (ETaR) respond
Endpoint response of M4R cells to ligand [1]: not to ET-1

Endpoint response of ETaR cells to ligand [2]: not to carbachol | Endpoint response of M4R cells to ligand [1]: respond to carbachol
Compound: C[N+](C)(C)CCOC(N)=O [carbachol]
Response of M4R cells to second ligand ([1]; second addition, after ET-1 stimulation): respond to carbachol, even after ET-1 stimulation

Compound: CN1[C@@H]2CC[C@H]1C[C@@H](OC(=O)C(CO)c1ccccc1)C2 (stereo partly drawn) [Atropine, atropine]
Inhibition of carbachol response in M4R cells ([1]; antagonist pre-treatment 30 min, then 10uM carbachol): completely inhibited

Compound: collagen
PWV shift of attached cells [3]: resembles background cell attachment signal | Cell attachment compared with other surfaces (rat MSC cell): better than the other surfaces

Label-free cell response (CXCR4): rapid and robust response
Compound: SDF-1α
Cell movement and morphology after stimulation (Rat MSC cells): movement of the cells is seen along with a spreading out of the cells

PWV shift relative to collagen or laminin surfaces ([3]; coated wells): 8 to 10 times
Compound: fibronectin

Compound: CC(=O)OCC[N+](C)(C)C [acetylcholine]
Fraction of mixed cell population responding (M5/RBL cells): Approximately 50%

Compound: laminin
PWV shift of attached cells [3]: resembles background cell attachment signal
